{
  "source": "patent US20240189388A1",
  "about": "“MEDICATION FOR TREATING LUNG INJURY” (SHANGHAI SEME CELL TECHNOLOGY CO., LTD., priority 2021, published 2024)",
  "key": {"[1]": {"tested_on": "LPS-induced acute respiratory distress syndrome", "test": "Histopathological examination of lung, HE staining, LPS-induced ARDS rat model (Example 1)", "format": "in vivo, SD rats", "design": "key to Pulmonary pathological score, Inflammation, Sited 1 / Pulmonary pathological score, Inflammation, Sited 2 / Pulmonary pathological score, Inflammation, Sited 3 / Pulmonary pathological score, Alveolar wall thickness, Sited 1 / Pulmonary pathological score, Alveolar wall thickness, Sited 2 / Pulmonary pathological score, Alveolar wall thickness, Sited 3: 0: NA; 1: Slight; 2: Moderate; 3: Severe; Pulmonary pathological score, Mean of total / Pulmonary pathological score, Inflammation, Mean / Pulmonary pathological score, Alveolar wall thickness, Mean / Pulmonary pathological score, Total: scale not given here", "procedure": "(§1) Normal adult male SD rats were randomly grouped, 5 rats in each group. The animals were intraperitoneally injected and nebulized in the trachea with lipopolysaccharides (LPS) as a modeling reagent, as shown in Table 1:\n(§2) The animals in groups G1 and G2 were intraperitoneally injected with lipopolysaccharides (0.8 mg/kg. body weight) according to their body weight, anesthetized by inhaling isoflurane after 16 h of the intraperitoneal injection, and nebulized with lipopolysaccharides (5 mg/kg. body weight) in the trachea.\n(§3) The animals were administered for the first time within 1 h after the intratracheal nebulization with the modeling reagent (LPS), and the second time after 24 h.\nAfter the bronchoalveolar lavage fluid was collected from all the animals, the chest cavity was opened to take the right lung. The lung was infused with formalin by using an injection needle, fixed in a 10% neutral buffer formalin solution, followed by paraffin embedding, slicing, section preparation, and HE staining for pathological morphological observation of lung tissues. Professional pathologists carried out pathological testing on the lung tissues."}, "[2]": {"test": "Body weight of rats after LPS modeling (Example 1)", "format": "in vivo", "procedure": "as §1, §2, §3\nBefore grouping, the animals were weighed on the day of modeling and the day of administration of samples; and the animals were also weighed when they were found dead or on the brink of euthanasia."}, "rats with a lung injury [3]": {"tested_on": "rats with a lung injury", "test": "BALF inflammatory factors and total protein (Example 2)", "format": "in vivo, Sprague-Dawley rats", "procedure": "(§4) D0: The animals in the normal control group were intraperitoneally injected with sodium chloride injection (1 ml/kg), while the animals in other groups were intraperitoneally injected with lipopolysaccharides (1 mg/kg, 1 ml/kg).\n(§5) D1: After 16 h (+30 min) of intraperitoneal injection, the animals were anesthetized by inhaling isoflurane. The animals in the normal control group were nebulized with sodium chloride injection (1 mL/kg) in the trachea, while the animals in other groups were nebulized with lipopolysaccharides (5 mg/kg, 1 ml/kg) in the trachea.\n(§6) Administration frequency and duration: On D1, the animals were administered for the first time within 3 h after the intratracheal nebulization with the modeling reagent (LPS); and on D2, the animals were administered for the second time. The interval between the two administrations was about 24 h (+20 min).\nSample collection: After the animals were euthanatized, the skin and tissues of the neck and chest were incised to expose the trachea, bronchi, and lungs. The bronchi in the right lung were separated and ligated. A suture was threaded under the trachea, a ½ incision was made between cartilage rings of the trachea at an appropriate position under the thyroid cartilage, a trachea cannula was slowly inserted along the incision into the airway to a left bronchus, and the inserted cannula was fastened with the trachea by using the threaded suture at an appropriate position in a centripetal direction of the incision. 3 ml of PBS buffer was slowly injected with a syringe for bronchoalveolar lavage. The lavage was repeated 3 times, with each remaining for about 10 seconds. The lavage solution was collected into a centrifuge tube of appropriate capacity.\nBALF treatment: The collected lavage solution was centrifuged at 4° C. and approximately 2000 rpm for 20 min. The supernatant was stored below −60° C. for later use. The precipitate was re-suspended with I mL of PBS buffer for count and classification of white blood cells. The supernatant after BALF centrifugation was managed as a sample by using a Watson LIMS7.5 system.\nTest of total protein content in the BALF: At the end of the experiment, the total protein content in the BALF was tested by a total protein test kit (BCA method).\nTest of inflammatory factors in the BALF: At the end of the experiment, the inflammatory factors (IL-1β, IL-6, IL-10, and TNF-α) in the BALF were tested by an inflammatory factor test kit."}, "rats with a lung injury [4]": {"tested_on": "rats with a lung injury", "test": "Blood gas test, LPS lung injury rats (Example 2)", "format": "in vivo, Sprague-Dawley rats", "procedure": "as §4, §5, §6\nTest time: the day after the second administration (D3)\nSample collection: The rats were anesthetized by intraperitoneal injection with chloral hydrate (350 mg/kg, 100 mg/mL), and their abdominal midline was longitudinally incised to separate the abdominal aorta. About 0.2 mL of arterial blood was collected with an arterial blood sampler. A syringe in the blood sampler was rubbed in the palm and turned upside down for 5 seconds to ensure that the blood was never returned to the blood sampler for blood mixing treatment.\nTesting method: After the arterial blood was collected, a needle was gently inserted into a blood injection port of a test card, and the blood was gently pushed in and filled a sample filling tube. When the blood reached an adding position, the adding of the sample was stopped, a lid was closed, and the blood automatically entered the test tube. The test card was inserted into a blood gas analyzer to wait for test results.\nTest indicators: PO2 (mmHg), PCO2 (mmHg), pH, and sO2%."}, "rats with a lung injury [5]": {"tested_on": "rats with a lung injury", "test": "Wet/dry ratio of the lung (Example 2)", "format": "in vivo, Sprague-Dawley rats", "procedure": "as §4, §5, §6\nDuring the autopsy, whether the lungs, trachea, and bronchi of the animals were abnormal were observed. […]\nForeign matters such as blood and tissue fluid on the surface of the middle lobe tissues of the right lung were wiped with a paper towel, the right lung was weighed, then the middle lobe tissues of the right lung were placed in a 60° C. oven for 72 h, the right lung was weighed again, and the wet/dry weight ratio of the lung was calculated. […]"}, "[6]": {"settings": "G2 compared to model control group G1"}, "[7]": {"settings": "mean of 3 sites per animal G2-1 to G2-5, 1 mg/kg"}, "[8]": {"settings": "single animals G2-1 to G2-5, 1 mg/kg, score 0-3"}, "[9]": {"settings": "D3, 0.75 mg/kg i.v. twice, 6 rats, x ± SD"}, "[10]": {"settings": "test sample group vs model control group"}, "[11]": {"settings": "arterial blood, D3, 0.75 mg/kg i.v. twice, 6 rats, x ± SD"}},
  "note": "“And” between values parts separate entries of the source, which are not always exact repeats. Equal values may be shown once.",
  "data": [
    {"substance": "Annexin A5", "values": [
      {"measurement": "Effect on LPS-induced acute respiratory distress syndrome (pathological analysis)", "setting": "[1]; [6]", "value": "significant improvement"},
      {"measurement": "Lung injury in stained pathological sections (FIG. 4)", "setting": "[1]; [6]", "value": "significantly improved"},
      {"measurement": "Pulmonary pathological score, Mean of total", "setting": "[1]; group G2, 5 rats, 1 mg/kg", "value": 2.33},
      {"measurement": "Pulmonary pathological score, Alveolar wall thickness, Mean", "setting": "[1]; [7]", "value": "0.67 (3×) and 1.00 and 1.33"},
      {"measurement": "Pulmonary pathological score, Inflammation, Mean", "setting": "[1]; [7]", "value": "1.67 and 2.00 and 1.33 (2×) and 1.00"},
      {"measurement": "Pulmonary pathological score, Total", "setting": "[1]; per animal G2-1 to G2-5, 1 mg/kg", "value": "2.33 (2×) and 3.00 and 2.00 (2×)"},
      {"measurement": "Pulmonary pathological score, Alveolar wall thickness, Sited 1", "setting": "[1]; [8]", "value": "0 (2×) and 1 (2×) and 2"},
      {"measurement": "Pulmonary pathological score, Alveolar wall thickness, Sited 2", "setting": "[1]; [8]", "value": "1 (4×) and 2"},
      {"measurement": "Pulmonary pathological score, Alveolar wall thickness, Sited 3", "setting": "[1]; [8]", "value": "1 (3×) and 0 (2×)"},
      {"measurement": "Pulmonary pathological score, Inflammation, Sited 1", "setting": "[1]; [8]", "value": "2 (2×) and 1 (3×)"},
      {"measurement": "Pulmonary pathological score, Inflammation, Sited 2", "setting": "[1]; [8]", "value": "2 and 3 and 1 (3×)"},
      {"measurement": "Pulmonary pathological score, Inflammation, Sited 3", "setting": "[1]; [8]", "value": "1 (3×) and 2 (2×)"},
      {"measurement": "Body weight, Day 0", "setting": "[2]; G2 mean, 5 rats, 1 mg/kg caudal vein injection, Day 0", "value": 254.49, "unit": "g"},
      {"measurement": "Body weight, Day 1", "setting": "[2]; G2 mean, 5 rats, 1 mg/kg caudal vein injection, Day 1", "value": 240.80, "unit": "g"},
      {"measurement": "Body weight, Day 2", "setting": "[2]; G2 mean, 5 rats, 1 mg/kg caudal vein injection, Day 2", "value": 224.36, "unit": "g"},
      {"measurement": "Body weight, Day 3", "setting": "[2]; G2 mean, 5 rats, 1 mg/kg caudal vein injection, Day 3", "value": 241.86, "unit": "g"},
      {"measurement": "Body weight compared between groups", "setting": "[2]; after LPS modeling, G2 vs G1", "value": "no significant difference between the groups"},
      {"measurement": "IL-1β in BALF", "setting": "rats with a lung injury [3]; [9]", "value": "107.45 ± 51.12", "unit": "pg/mL"},
      {"measurement": "IL-6 in BALF", "setting": "rats with a lung injury [3]; [9]", "value": "14.42 ± 23.92", "unit": "pg/mL"},
      {"measurement": "IL-10 in BALF", "setting": "rats with a lung injury [3]; [9]", "value": "0.92 ± 2.23", "unit": "pg/mL"},
      {"measurement": "TNF-α in BALF", "setting": "rats with a lung injury [3]; [9]", "value": "4.54 ± 4.63", "unit": "pg/mL"},
      {"measurement": "Total proteins in BALF", "setting": "rats with a lung injury [3]; [9]", "value": "461.31 ± 187.36", "unit": "µg/mL"},
      {"measurement": "Change of BALF white blood cell counts, total protein and inflammatory factors", "setting": "rats with a lung injury [3]; [10]", "value": "significantly decreased"},
      {"measurement": "PCO2", "setting": "rats with a lung injury [4]; [11]", "value": "46.63 ± 6.17", "unit": "mmHg"},
      {"measurement": "PO2", "setting": "rats with a lung injury [4]; [11]", "value": "82.5 ± 8.7", "unit": "mmHg"},
      {"measurement": "pH", "setting": "rats with a lung injury [4]; [11]", "value": "7.372 ± 0.049"},
      {"measurement": "sO2 %", "setting": "rats with a lung injury [4]; [11]", "value": "95.5 ± 1.0", "unit": "%"},
      {"measurement": "Change in the pH indicator", "setting": "rats with a lung injury [4]; test sample group", "value": "no significant change"},
      {"measurement": "Change of PO2, sO2% and PCO2 after administration", "setting": "rats with a lung injury [4]; [10]", "value": "all increased with statistical differences"},
      {"measurement": "Wet/dry ratio of the lung", "setting": "rats with a lung injury [5]; middle lobe of right lung, 0.75 mg/kg i.v. twice, 6 rats, x ± SD", "value": "4.68 ± 0.08"},
      {"measurement": "Change of wet/dry ratio of the lung", "setting": "rats with a lung injury [5]; test sample group", "value": "decreased"}
    ]}
  ]
}
